The target in assay [1] is T1, recombinant full-length human PTPN11 (SHP2) (Homo sapiens, UniProt Q06124).
T1 construct: recombinant full-length human PTPN11 (SHP2), active (SignalChem); purchased SignalChem
T1 sequence (Q06124 1-593): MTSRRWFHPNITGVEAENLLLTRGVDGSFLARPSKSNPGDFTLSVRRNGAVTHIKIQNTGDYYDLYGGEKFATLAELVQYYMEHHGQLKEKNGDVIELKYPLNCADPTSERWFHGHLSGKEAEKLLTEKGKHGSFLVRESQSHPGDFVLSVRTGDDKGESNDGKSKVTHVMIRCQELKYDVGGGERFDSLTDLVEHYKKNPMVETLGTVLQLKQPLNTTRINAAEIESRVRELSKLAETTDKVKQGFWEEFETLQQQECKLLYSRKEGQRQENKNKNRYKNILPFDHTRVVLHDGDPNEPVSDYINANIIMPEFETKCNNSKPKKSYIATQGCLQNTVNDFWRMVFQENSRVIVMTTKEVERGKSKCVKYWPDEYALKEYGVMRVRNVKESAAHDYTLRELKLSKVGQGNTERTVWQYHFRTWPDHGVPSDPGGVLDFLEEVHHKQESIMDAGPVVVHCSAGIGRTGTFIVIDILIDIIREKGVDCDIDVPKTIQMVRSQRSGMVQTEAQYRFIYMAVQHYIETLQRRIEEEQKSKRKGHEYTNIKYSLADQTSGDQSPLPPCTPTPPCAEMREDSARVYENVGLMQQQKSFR
The assay can be described thus: Inhibition of in vitro enzyme activity of SHP2 (DiFMUP fluorescence endpoint assay). The assay is classed as biochemical. Particulars: SHP2 0.5 nM, DiFMUP 200 μM, IRS-1 0.5 μM; 60 min incubation. The method, then:
Test Example 1: Experiment on the Inhibition of In Vitro Enzyme Activity of SHP2 (Protein Phosphatase)
phosphatase: recombinant full-length human PTPN11 (SHP2), active (SignalChem);
substrate: 6,8-difluoro-4-methylumbelliferyl phosphate (DiFMUP) (Invitrogen);
activating peptide: IRS1_pY1172(dPEG8)pY1222 (IRS1) (BPS Bioscience);
terminator: bpv(phen) (bpv) (Abcam).
SHP2 concentration: 0.5 nM;
DiFMUP concentration: 200 μM;
IRS-1 concentration: 0.5 μM;
bpv concentration: 160 μM;
buffer systems: 60 mM Hepes pH 7.2; 75 mM NaCl; 75 mM KCl; 0.05% surfactant P20; 1 mM EDTA; 5 mM DTT;
incubation duration of compound and enzyme: 60 minutes;
reaction time of enzyme and substrate: 30 minutes;
parameters for microplate reader: BMG PHERAstar fluorescence microplate reader at an excitation wavelength of 340 nm and an emission wavelength of 450 nm.
Test group: A mixture of the test compound and the phosphatase SHP2 together with the activating peptide IRS-1 were incubated in the buffer system at room temperature for 60 minutes. The substrate DiFMUP was added to initiate the reaction and incubated at room temperature for 30 minutes. Thereafter, bpv was added to terminate the reaction. The reaction plate was placed in the microplate reader, and the fluorescence intensities of the wells in the plate were measured using an endpoint assay.
Negative group: The experimental method for the negative group was the same as that for the test group, except that the test compound was substituted with 0.05% aqueous solution of DMSO.
Blank group: The experimental method for the blank group was the same as that for the test group, except that the test compound was substituted with 0.05% aqueous solution of DMSO and that SHP2 was not added.
The relative inhibitory activity was calculated for the test group at each concentration based on the following equation: inhibition rate (%)=100%−(the fluorescence intensity of the test group−the fluorescence intensity of the blank group)/(the fluorescence intensity of the negative group−the fluorescence intensity of the blank group)×100%. The half maximal inhibitory concentration (IC50) of the compound was calculated by fitting the curve according to the four-parameter logistic model.

In assay [2] the test system is KYSE-520 cell (human esophageal squamous cell carcinoma cell). In words: Inhibition of the proliferation activity of KYSE-520 cell (CellTiter-Glo). As to conditions: 120 h, KYSE-520 cell proliferation, 5 days. It is filed as cell-based. The method, then: Test Example 2: Experiment on the Inhibition of the Proliferation Activity of KYSE-520 Cell (Human Esophageal Squamous Cell Carcinoma Cell)
cell: KYSE-520 (JCRB Cell Bank);
(§1) kit: CellTiter-Glo® Luminescent Cell Viability Assay Kit (Promega).
(§2) inoculation amount of cell: 1500 cells/well;
incubation conditions for compound: 37° C., 5% CO2;
(§3) incubation duration: 5 days;
(§4) detecting temperature: room temperature;
(§5) chemiluminescence detection using the BMG PHERAstar FS reader.
(§6) Cells were cultured in a medium containing 10% fetal bovine serum under the culture conditions of 37° C. and 5% CO2. An appropriate amount of cells were plated into a 96-well plate and cultured overnight in an incubator to allow the cells to adhere to the wall. The following day, the medium was removed and a complete medium containing a pre-diluted compound was added and incubated at 37° C. for 5 days. On the fifth day, the detection reagent CellTiter-Glo® was added into each well. Chemiluminescence was adopted to detect the relative luminescence units (RLUs) of the wells.
(§7) The result of a well containing cell-free medium, treated with CellTiter-Glo®, was obtained as the blank value. Cell viability (%)=(sample RLU−blank RLU)/(vehicle RLU−blank RLU)×100%, and maximum inhibition rate (%)=100%−cell viabilitymax. conc. (%). The half maximal inhibitory concentration (IC50) of the compound was calculated by fitting the curve according to the four-parameter logistic model.

The subject of assay [3] is NCI-H358 cell (human non-small cell lung cancer cell). In words: Inhibition of the proliferation activity of NCI-H358 cell (CellTiter-Glo). The assay is classed as cell-based. Particulars: 120 h, 5 days. The method, then: Test Example 4: Experiment on the Inhibition of the Proliferation Activity of NCI-H358 Cell (Human Non-Small Cell Lung Cancer Cell)
cell: NCI-H358 (Nanjing CoBioer);
as §1, §2
incubation conditions for compounds: 37° C., 5% CO2;
as §3, §4, §5, §6, §7
Background: Cellular ATP, detected with luciferase, serves as a proxy for viable cell number.

pIC50: −log10 of the molar value.

The term IC50 denotes the point on the concentration scale where inhibition reaches its midpoint. Usually pIC50 stands for the negative decadic logarithm of the IC50, by convention in mol/L.

With `C[C@@H]1OCC2(CCN(c3cnc(Sc4ccnc(N5CCCC5CO)c4Cl)c(N)n3)CC2)[C@@H]1N` (stereo partly drawn) [Example 37, (1-(4-(3-amino-5-((3S,4S)-4-amino-3-methyl-2-oxa-8-azaspiro[4.5]decan-8-yl)pyrazin-2-ylthio)-3-chloropyridin-2-yl)pyrrolidin-2-yl)methanol], in assay [1], the IC50 was determined as 2.4 nM.

Turning to `C[C@@H]1OCC2(CCN(c3ncc(Sc4ccnc(N5CCC(CO)C5)c4Cl)nc3CO)CC2)[C@@H]1N` (stereo partly drawn) [Example 8, (3-((3S,4S)-4-amino-3-methyl-2-oxa-8-azaspiro[4.5]decan-8-yl)-6-(3-chloro-2-(3-(hydroxymethyl)pyrrolidin-1-yl)pyridin-4-ylthio)pyrazin-2-yl)methanol], in assay [1], the IC50 was found to be 0.88 nM. Further, in assay [2], the pIC50 is 7.52.

Consider `C[C@@H]1OCC2(CCN(c3cnc(Sc4ccnc(N5CC(CS(C)(=O)=O)C5)c4Cl)c(N)n3)CC2)[C@@H]1N` [Example 38, (3S,4S)-8-(6-amino-5-(3-chloro-2-(3-(methylsulfonylmethyl)azetidin-1-yl)pyridin-4-ylthio)pyrazin-2-yl)-3-methyl-2-oxa-8-azaspiro[4.5]decan-4-amine], for which the IC50 in assay [1] worked out at 5.3 nM. With `CC(C)(O)C1CN(c2nccc(Sc3cnc(N4CCC5(CC4)Oc4ccc(F)cc4[C@H]5N)cn3)c2Cl)C1` [Example 41, (R)-2-(1-(4-(5-(3-amino-5-fluoro-3H-spiro[benzofuran-2,4′-piperidin]-1′-yl)pyrazin-2-ylthio)-3-chloropyridin-2-yl)azetidin-3-yl)propan-2-ol], the IC50 in assay [1] stood at 8.4 nM. For the compound `CC(C)(O)C1CN(c2nccc(Sc3cnc(N4CCC5(CC4)Oc4ncccc4[C@H]5N)c(CO)n3)c2Cl)C1` [Example 44, (R)-2-(1-(4-(5-(3-amino-3H-spiro[furo[2,3-b]pyridine-2,4′-piperidin]-1′-yl)-6-(hydroxymethyl)pyrazin-2-ylthio)-3-chloropyridin-2-yl)azetidin-3-yl)propan-2-ol], in assay [1], the IC50 came to 2.49 nM. Moreover, the pIC50 in assay [2] and in assay [3] was 7.30 throughout.

For `CC(N)C1(C)CCN(c2ncc(Sc3ccnc(N4CCCC4CO)c3Cl)nc2CO)CC1` (stereo not drawn) [Example 3], the IC50 in assay [1] came to 3.48 nM. This compound also gave a negative logarithm of the IC50 (pIC50) in assay [2] of 5.94. With `C[C@@H]1OCC2(CCN(c3ncc(Sc4ccc(N5CC(C(C)(C)O)C5)nc4Cl)nc3CO)CC2)[C@@H]1N` [Example 11, 2-(1-(5-(5-((3S,4S)-4-amino-3-methyl-2-oxa-8-azaspiro[4.5]decan-8-yl)-6-(hydroxymethyl)pyrazin-2-ylthio)-6-chloropyridin-2-yl)azetidin-3-yl)propan-2-ol], the IC50 in assay [1] was found to be 9.3 nM.

For `C[C@@H]1OCC2(CCN(c3ncc(Sc4ccnc(N5CC(CF)C5)c4Cl)nc3CO)CC2)[C@@H]1N` [Example 16, (3-((3S,4S)-4-amino-3-methyl-2-oxa-8-azaspiro[4.5]decan-8-yl)-6-(3-chloro-2-(3-(fluoromethyl)azetidin-1-yl)pyridin-4-ylthio)pyrazin-2-yl)methanol], the IC50 in assay [1] was determined as 1 nM. Also, the pIC50 in assay [2] was 7.40. As to `CC(C)(O)C1CN(c2nccc(Sc3cnc(N4CCC5(CC4)Cc4ncccc4[C@H]5N)cn3)c2Cl)C1` [Example 45, (S)-2-(1-(4-(5-(5-amino-5,7-dihydrospiro[cyclopenta[b]pyridine-6,4′-piperidin]-1′-yl)pyrazin-2-ylthio)-3-chloropyridin-2-yl)azetidin-3-yl)propan-2-ol], the IC50 in assay [1] came to 4.1 nM. Besides, the pIC50 in assay [2] was 6.68. As to `CC(C)(O)C1CN(c2nccc(Sc3cnc(N4CCC5(CC4)Oc4ccc(F)cc4[C@H]5N)c(CO)n3)c2Cl)C1` [Example 20, (R)-2-(1-(4-(5-(3-amino-5-fluoro-3H-spiro[benzofuran-2,4′-piperidin]-1′-yl)-6-(hydroxymethyl)pyrazin-2-ylthio)-3-chloropyridin-2-yl)azetidin-3-yl)propan-2-ol], the IC50 in assay [1] came out at 6.9 nM. Consider `COCC1(C)CN(c2nccc(Sc3cnc(N4CCC5(CC4)CO[C@@H](C)[C@H]5N)c(CO)n3)c2Cl)C1` [Example 33, (3-((3S,4S)-4-amino-3-methyl-2-oxa-8-azaspiro[4.5]decan-8-yl)-6-(3-chloro-2-(3-(methoxymethyl)-3-methylazetidin-1-yl)pyridin-4-ylthio)pyrazin-2-yl)methanol], for which the IC50 in assay [1] was 4.1 nM. The pIC50 in assay [2] was 7.05. On to `C[C@@H]1OCC2(CCN(c3ncc(Sc4ccnc(N5CCC(CC#N)C5)c4Cl)nc3CO)CC2)[C@@H]1N` (stereo partly drawn) [Example 10, 2-(1-(4-(5-((3S,4S)-4-amino-3-methyl-2-oxa-8-azaspiro[4.5]decan-8-yl)-6-(hydroxymethyl)pyrazin-2-ylthio)-3-chloropyridin-2-yl)pyrrolidin-3-yl)acetonitrile], for which the IC50 in assay [1] was 1.22 nM. Moreover, the negative logarithm of the IC50 (pIC50) in assay [2] is 7.40. On to `Cc1nc(N2CCC3(CC2)Cc2ncccc2[C@H]3N)c(CO)nc1Sc1ccnc(N2CC(C(C)(C)O)C2)c1Cl` [Example 50, (S)-2-(1-(4-(5-(5-amino-5,7-dihydrospiro[cyclopenta[b]pyridine-6,4′-piperidin]-1′-yl)-6-(hydroxymethyl)-3-methylpyrazin-2-ylthio)-3-chloropyridin-2-yl)azetidin-3-yl)propan-2-ol], for which the IC50 in assay [1] was 4.84 nM. Consider `CC(C)(O)C1CN(c2nccc(Sc3cnc(N4CCC5(CC4)CCC4(CC4)[C@H]5N)c(CO)n3)c2Cl)C1` [Example 49, 2-(1-(4-(5-(4-amino-8-azadispiro[2.1.5.2]dodecan-8-yl)-6-(hydroxymethyl)pyrazin-2-ylthio)-3-chloropyridin-2-yl)azetidin-3-yl)propan-2-ol], for which the IC50 in assay [1] stood at 2.3 nM. This compound also gave a negative-log IC50 (pIC50) in assay [2] of 6.57. As to `Cc1nc(N2CCC3(CC2)CO[C@@H](C)[C@H]3N)c(CO)nc1Sc1ccnc(N2CC(C(C)(C)O)C2)c1Cl` [Example 32, 2-(1-(4-(5-((3S,4S)-4-amino-3-methyl-2-oxa-8-azaspiro[4.5]decan-8-yl)-6-(hydroxymethyl)-3-methylpyrazin-2-ylthio)-3-chloropyridin-2-yl)azetidin-3-yl)propan-2-ol], in assay [1], the IC50 worked out at 3.7 nM.
